Test [1] deals with H3K27 methylation in G401 cell. Briefly: ELISA (H3K27 methylation) assay in G401 cells. Format: cell-based, human. The note with it: Homo sapiens, G-401, read-out: (c) IC50, ELISA Qualified. Here is the method:
Compounds of the present invention were assessed for their ability to inhibit PRC2 activity in a pentameric complex of EZH2, SUZ12, EED, Rbap48 and AEBP in biochemical assays. The ability of compounds of the present invention to inhibit cellular activity of PRC2 was assessed by analysing histone H3 lysine 27 methylation in human cell lines. The ability of compounds of the present invention to inhibit cancers was derived from their ability to modulate activity in human cancer cell lines bearing specific dependence to PRC2 activity to maintain cancerous growth.
ELISA (H3K27 Methylation) Assay
Representative compounds of the present invention were serially and separately diluted 3-fold in DMSO to obtain a total of eight or twelve concentrations. Then the compounds were added to G401 cell cultured in 384-well plate at 1:500 dilution to obtain the highest concentration of 20 μM. The cells were further cultured for 48 h before ELISA procedure.
Histone extraction: Cells, in 384-well plate, were washed with PBS (10×PBS buffer (80 g NaCl (Sigma, S3014), 2 g KCl (Sigma, 60128), 14.4 g Na2HPO4 (Sigma, S5136), 2.4 g KH2PO4 (Sigma, P9791) to 1 L water, pH to 7.4) and lysed with the addition of lysis buffer (0.4N HCl; 45 μL per well). The plate was gently agitated at 4° C. for 30 min. The cell lysate was neutralized with neutralization buffer (0.5 M sodium phosphate dibasic, pH 12.5, 1 mM DTT; 36 μL per well). The plate was agitated to ensure the lysates were well mixed prior to the ELISA protocol.
ELISA protocol: Cell lysates were transferred to the wells of a 384-well plate and the final volume was adjusted to 50 μL per well with PBS. The plate was sealed, centrifuged at 2,000 rpm for 2 min and incubated at 4° C. for about 16 h. The plate was washed with TBST buffer (1×TBS (10×TBS: 24.2 g Tris (Sigma, T6066), 80 g NaCl (Sigma, S3014) to 1 L of water and adjust pH to 7.6 with HCl) with 0.1% Tween-20). Blocking buffer (TBST, 5% BSA; 50 μL per well) was added and the plate was incubated for 1 h at rt. The blocking buffer was removed and primary antibody was added (30 μL per well). The following dilutions were performed with blocking buffer: for anti-H3K27me3 antibody (Cell Signaling Technology, #9733), dilution was 1:1000; for anti-H3K27me2 antibody (Cell Signaling Technology, #9288), dilution was 1:100; for anti-H3 antibody (Abcam, Cat #24834), dilution was 1:1000. The primary antibody was incubated in the plate at rt for 1 h. The wells were washed with TBST and incubated with secondary antibody for 1 h at rt. For secondary antibodies, the following dilutions were carried out with blocking buffer: anti-rabbit antibody (Jackson ImmunoResearch, #111-035-003), dilution was 1:2000; and anti-mouse antibody (Cell signaling technology, #7076), dilution was 1:1000. After 1 h of incubation at rt, the wells were washed with TBST. ECL substrate (Pierce, #34080) was added at 30 μL per well and the plates were centrifuged at 2,000 rpm for 2 min. The signal was read using a PerkinElmer Envision Reader. The H3K27 methylation readouts were normalized using H3 signal and then percentage inhibition was calculated against the samples treated with DMSO. The data were then fit to a dose response curve using the program Helios to get the IC50 values of the test compound.
(ELISA stands for enzyme-linked immunosorbent assay.)

A further test deals with T1, EED (1-441)-His protein (Homo sapiens, UniProt O75530).
T1 construct: 30 nM EED (1-441)-His protein
As to the kind of experiment: EED-H3K27Me3 peptide competition binding assay by AlphaScreen. The note with it: read-out: (a) IC50, EED Alphascreen binding Qualified. Here is the method:
EED-H3K27Me3 Peptide Competition Binding Assay by AlphaScreen (α-Screen)
To assess the compounds' potency in the EED-H3K27Me3 competition binding assay, compounds were serially diluted 3-fold in DMSO to obtain a total of twelve concentrations. Then compounds at each concentration (75 nL of each) were transferred by Mosquito into a 384-well Perkin Elmer ProxiPlate 384 plus plates. 8 uL of solutions containing 30 nM EED (1-441)-His protein and 15 nM biotin-H3K27Me3 (19-33) peptide in the buffer (25 mM HEPES, pH 8, 0.02% Tween-20, 0.5% BSA) were added to the wells and then incubated with compound for 20 min. AlphaScreen detection beads mix was prepared immediately before use by mixing nickel chelate acceptor beads and streptavidin donor beads in a 1:1 ratio (Perkin Elmer, Product No. 6760619C/M/R) into the buffer described above. Then 4 μL of detection beads mix was added to the plate and incubate in the dark at the rt for 1 h. The final concentration of donor and acceptor beads was 10 μg/mL for each. Plates were read on EnVision (PerkinElmer) using the AlphaScreen setting adapted for optimal signal detection with a 615 nm filter, after sample excitation at 680 nm. The emission signal at 615 nm was used to quantify compounds inhibition. AlphaScreen signals were normalized based on the reading coming from the positive (maximum signal control) and negative controls (minimum signal control) to give percentage of activities left. The data were then fit to a dose response equation using the program Helios (Novartis) to get the IC50 values. Helios is a Novartis in-house assay data analysis software using the methods described by Normolle, D. P., Statistics in Medicine, 12:2025-2042 (1993); Formenko, I. et al, Computer Methods and Programs in Biomedicine, 82, 31-37 (2006); Sebaugh, J. L., Pharmaceutical Statistics, 10:128-134 (2011); Kelly, C. et al., Biometrics, 46(4):1071-1085 (1990); and Kahm, M. et al., Journal of Statistical Software, 33 (7): (2010) (grofit: Fitting Biological Growth Curves with R, pages 1-21, available at http://www.jstatsoft.org/).

T1 sequence (O75530 whole entry): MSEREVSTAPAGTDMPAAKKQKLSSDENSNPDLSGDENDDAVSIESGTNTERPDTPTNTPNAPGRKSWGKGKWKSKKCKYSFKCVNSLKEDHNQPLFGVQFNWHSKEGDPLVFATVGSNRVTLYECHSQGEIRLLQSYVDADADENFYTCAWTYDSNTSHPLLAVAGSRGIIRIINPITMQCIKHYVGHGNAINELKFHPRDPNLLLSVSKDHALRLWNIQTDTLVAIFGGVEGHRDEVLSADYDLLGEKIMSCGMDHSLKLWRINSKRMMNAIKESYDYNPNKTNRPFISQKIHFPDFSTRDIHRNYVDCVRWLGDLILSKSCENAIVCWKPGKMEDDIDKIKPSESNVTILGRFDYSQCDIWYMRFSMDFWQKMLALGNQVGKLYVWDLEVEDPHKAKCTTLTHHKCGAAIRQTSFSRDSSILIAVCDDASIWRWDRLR

For the compound `COc1ccc(F)cc1CNc1ccc(-c2ccc(S(C)(=O)=O)cc2)c2nncn12` [Example 116, N-(5-fluoro-2-methoxybenzyl)-8-(4-(methylsulfonyl)phenyl)-[1,2,4]triazolo[4,3-a]pyridin-5-amine], the IC50 in test [1] was determined as 0.748 µM; at EED (1-441)-His protein it was 0.276 µM.

As for `COc1ccc(F)cc1CNc1ccc(-c2ccncc2)c2nncn12` [Example 117, N-(5-fluoro-2-methoxybenzyl)-8-(pyridin-4-yl)-[1,2,4]triazolo[4,3-a]pyridin-5-amine], the 50% inhibitory concentration (IC50) in test [1] is 0.895 µM; at EED (1-441)-His protein, 0.846 µM.

Consider `COc1ccc(F)cc1CNc1ccc(-c2cccnc2)c2nncn12` [Example 118, N-(5-fluoro-2-methoxybenzyl)-8-(pyridin-3-yl)-[1,2,4]triazolo[4,3-a]pyridin-5-amine], for which the concentration for half-maximal inhibition (IC50) in test [1] was found to be 1.27 µM; at EED (1-441)-His protein it was 1.26 µM.

As for `COc1c(F)cccc1CNc1ccc(-c2ccc(S(C)(=O)=O)cc2)c2nncn12` [Example 119, N-(3-fluoro-2-methoxybenzyl)-8-(4-(methylsulfonyl)phenyl)-[1,2,4]triazolo[4,3-a]pyridin-5-amine], the IC50 in test [1] came out at 5.14 µM; on EED (1-441)-His protein, 0.677 µM.

On to `COc1ccc(F)c(CNc2ccc(-c3ccc(S(C)(=O)=O)cc3)c3nncn23)c1` [Example 120, N-(2-fluoro-5-methoxybenzyl)-8-(4-(methylsulfonyl)phenyl)-[1,2,4]triazolo[4,3-a]pyridin-5-amine], for which the IC50 in test [1] turned out to be 0.19 µM; on EED (1-441)-His protein, 0.244 µM.

With `COc1ccc(F)c(CNc2ccc(-c3cccnc3)c3nncn23)c1` [Example 121, N-(2-fluoro-5-methoxybenzyl)-8-(pyridin-3-yl)-[1,2,4]triazolo[4,3-a]pyridin-5-amine], the half-maximal inhibitory concentration (IC50) turned out to be 0.299 µM in test [1] and 0.68 µM at EED (1-441)-His protein.

In the case of `COc1ccc(F)c(CNc2ccc(-c3ccc(S(C)(=O)=O)nc3)c3nncn23)c1` [Example 122, N-(2-fluoro-5-methoxybenzyl)-8-(6-(methylsulfonyl)pyridin-3-yl)-[1,2,4]triazolo[4,3-a] pyridin-5-amine], the IC50 in test [1] was 0.138 µM; at EED (1-441)-His protein, 0.313 µM.

Take `COc1cccc(F)c1CNc1ccc(-c2cnn(C)c2)c2nncn12` [Example 125, N-(2-fluoro-6-methoxybenzyl)-8-(1-methyl-1H-pyrazol-4-yl)-[1,2,4] triazolo[4,3-a]pyridin-5-amine]: the concentration for half-maximal inhibition (IC50) is 0.173 µM in test [1] and 0.153 µM on EED (1-441)-His protein.

With `COc1cc(F)ccc1CNc1ccc(-c2ccc(NS(C)(=O)=O)c(F)c2)c2nncn12` [Example 129, N-(2-fluoro-4-(5-((4-fluoro-2-methoxybenzyl)amino)-[1,2,4]triazolo[4,3-a]pyridin-8-yl)phenyl)methane sulfonamide], the IC50 in test [1] was found to be 0.854 µM; at EED (1-441)-His protein, 0.381 µM.

In the case of `COc1cc(F)ccc1CNc1ccc(-c2ccc(S(C)(=O)=O)nc2)c2nncn12` [Example 134, N-(4-fluoro-2-methoxybenzyl)-8-(6-(methylsulfonyl)pyridin-3-yl)-[1,2,4]triazolo[4,3-a] pyridin-5-amine], the IC50 in test [1] stood at 0.538 µM; on EED (1-441)-His protein it was 0.177 µM.

Turning to `COc1ccc(F)cc1CNc1ccc(-c2ccc(S(=O)(=O)C3CCN(C)CC3)cc2)c2nncn12` [Example 135, N-(5-fluoro-2-methoxybenzyl)-8-(4-((1-methylpiperidin-4-yl)sulfonyl)phenyl)-[1,2,4]triazolo[4,3-a] pyridin-5-amine], the values for the IC50 (in test [1]; on EED (1-441)-His protein) were 0.279 µM and 0.444 µM, respectively.

Turning to `COc1c(F)cccc1CNc1ccc(-c2ccc(S(C)(=O)=O)nc2)c2nncn12` [Example 136, N-(3-fluoro-2-methoxybenzyl)-8-(6-(methylsulfonyl)pyridin-3-yl)-[1,2,4]triazolo[4,3-a] pyridin-5-amine], the IC50 in test [1] is 11.4 µM; on EED (1-441)-His protein it was 2.88 µM.

On to `COc1c(F)cccc1CNc1ccc(-c2ccncc2)c2nncn12` [Example 137, N-(3-fluoro-2-methoxybenzyl)-8-(pyridin-4-yl)-[1,2,4]triazolo[4,3-a]pyridin-5-amine], for which the IC50 in test [1] was 0.733 µM; on EED (1-441)-His protein, 0.344 µM.

For the compound `COc1c(F)cccc1CNc1ccc(-c2ccc(S(=O)(=O)C3CCN(C)CC3)cc2)c2nncn12` [Example 138, N-(3-fluoro-2-methoxybenzyl)-8-(4-((1-methylpiperidin-4-yl)sulfonyl)phenyl)-[1,2,4] triazolo[4,3-a]pyridin-5-amine], the half-inhibitory concentration (IC50) in test [1] amounted to 2.9 µM; at EED (1-441)-His protein, 1.27 µM.

As to `COc1cccc(F)c1CNc1ccc(-c2cnc(N(C)C)nc2)c2nncn12` [Example 141, 8-(2-(dimethylamino)pyrimidin-5-yl)-N-(2-fluoro-6-methoxybenzyl)-[1,2,4] triazolo[4,3-a]pyridin-5-amine], the IC50 was found to be 0.761 µM in test [1] and 0.118 µM on EED (1-441)-His protein.

For `COc1c(F)cccc1CNc1ccc(-c2cccnc2)c2nncn12` [Example 144, N-(3-fluoro-2-methoxybenzyl)-8-(pyridin-3-yl)-[1,2,4]triazolo[4,3-a]pyridin-5-amine], the half-inhibitory concentration (IC50) is 0.986 µM in test [1] and 1.27 µM on EED (1-441)-His protein.

For the compound `COc1cccc(F)c1CNc1ccc(-c2cnn(CCO)c2)c2nncn12` [Example 145, 2-(4-(5-((2-fluoro-6-methoxybenzyl)amino)-[1,2,4]triazolo[4,3-a]pyridin-8-yl)-1H-pyrazol-1-yl)ethanol], the IC50 in test [1] turned out to be 0.118 µM; on EED (1-441)-His protein it was 0.125 µM.

As to `COc1c(F)cc(F)cc1CNc1ccc(-c2ccc(CN(C)C)cc2)c2nncn12` [Example 146, N-(3,5-difluoro-2-methoxybenzyl)-8-(4-((dimethylamino)methyl)phenyl)-[1,2,4]triazolo[4,3-a] pyridin-5-amine], the half-maximal inhibitory concentration (IC50) came to 4.11 µM in test [1] and 1.98 µM on EED (1-441)-His protein.

On to `COc1cc(F)ccc1CNc1ccc(-c2ccc(S(=O)(=O)C3CCN(C)CC3)cc2)c2nncn12` [Example 153, N-(4-fluoro-2-methoxybenzyl)-8-(4-((1-methylpiperidin-4-yl)sulfonyl)phenyl)-[1,2,4]triazolo[4,3-a] pyridin-5-amine], for which the figures for the IC50 (in test [1]; on EED (1-441)-His protein) were 0.223 µM and 0.168 µM, respectively.

For orientation: IC50 means the concentration that inhibits the measured activity by half.

The values are drawn from patent US10689378B2, “Triazolopyridine compounds and uses thereof” (Novartis AG, priority 2016, dated 2020).
